Key:
Format in all cases: physicochemical, human
[1] = LC/MS of blood plasma sample: time from blood collection to centrifugation (Table D); details: for Increase or decrease: detection intensity; for Increase or decrease / Rate of increase or decrease: blood collection to centrifugation; for Rate of increase or decrease (second value, decrease) / Rate of increase or decrease (first value, increase): different from individual to individual, relative to 1 at 15 minutes, collection to centrifugation; for Rate of increase or decrease (second value, decrease): individuals with decrease; for Rate of increase or decrease (first value, increase): individuals with increase; for Rate of increase or decrease: detection intensity relative to 1 at 15 minutes
Method in brief: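 Detection intensities are expressed relative to samples centrifuged 15 min after collection (=1), measured by electrospray LC/MS in MRM mode (Discovery HS F5-3, 40 °C, formic acid water/acetonitrile gradient at 0.25 mL/min). EDTA blood from a healthy donor was held at 4 °C, centrifuged at 4 °C, 3000 rpm, 15 min, and plasma frozen.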

[2] = LC/MS of serum sample: number of times of freezing and thawing (Table M); design: key to Rate of increase or decrease: detection intensity relative to 1 at 2 freeze-thaw cycles; details: for Number of times when compound is affected / Increase or decrease: serum sample, LC/MS; for Number of times when compound is affected: detection intensity changed by 30% or more vs 2 times of freezing and thawing; for Increase or decrease: detection intensity vs 2 times of freezing and thawing
Method in brief: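 Values are detection intensities relative to serum thawed twice, versus 4, 6 or 10 freeze-thaw cycles. Serum came from blood spun at room temperature, 3500 rpm for 5 minutes. Analysis: electrospray LC/MS in MRM mode, Discovery HS F5-3 column, 40° C, 0.1% formic acid in water and acetonitrile.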

[3] = LC/MS of serum sample: time from blood collection to centrifugation (Table J); details: for Rate of increase or decrease: detection intensity relative to 1 at 15 minutes; for Increase or decrease / Time when compound is affected: serum sample, LC/MS; for Increase or decrease: detection intensity vs 15 minutes from blood collection to centrifugation; for Time when compound is affected: time from blood collection to centrifugation, detection intensity changed by 30% or more vs 15 minutes
Method in brief: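 Detection intensities are expressed relative to 1 for samples centrifuged 15 min after blood collection; centrifugation was at room temperature, 3500 rpm, 5 min. Frozen serum was run by electrospray LC-MS in MRM mode, with 0.1% formic acid water/acetonitrile at 0.25 mL/min on a 40 °C F5 column.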

[4] = LC/MS of serum sample: time from centrifugation to isolation (Table K); design: key to Rate of increase or decrease: detection intensity relative to the 30-minute value set as 1; details: for Rate of increase or decrease: detection intensity relative to 1 at 30 minutes; for Increase or decrease / Time when compound is affected: serum sample, LC/MS; for Increase or decrease: detection intensity vs 30 minutes from centrifugation to isolation; for Time when compound is affected: time from centrifugation to isolation, detection intensity changed by 30% or more vs 30 minutes
Experimental: After standing, the blood sample was subjected to centrifugation under a condition of room temperature, 3500 rpm, and 5 minutes. […] After centrifugation, the blood-collecting vessel was left to stand at room temperature, and the serum was isolated during this time. Here, in order to investigate how the detection intensity of molecules contained in the sample was affected in cases where the time during which the blood-collecting vessel was left at room temperature was set to 1 hour and 6 hours as compared to that in a case where the time was set to 30 minutes, preparations were performed under the respective conditions of 30 minutes, 1 hour, and 6 hours. The obtained serum sample was frozen and stored. Here, in order to investigate how the detection intensity of molecules contained in the sample was affected in cases where freezing and thawing was performed 4 times, 6 times, and 10 times after freezing as compared to that in a case where freezing and thawing was performed 2 times after freezing, freezing and thawing was performed under the respective conditions of 2, 4, 6, and 10 times.
(§1) Frozen blood plasma samples and serum samples were subjected to GC/MS or LC/MS. In GC/MS, the blood plasma samples and serum samples were subjected to methoxymation and trimethylsilylation and then introduced to GC-MS.
(§2) Analysis column: Discovery HS F5-3 (inner diameter of 2.1 mm, length of 150 mm, film thickness of 3 μm) (Sigma-Aldrich)
(§3) Column temperature: 40° C.
(§4) (A) 0.1% formic acid (dissolved in water)
(§5) (B) 0.1% formic acid (dissolved in acetonitrile)
(§6) Flow velocity: 0.25 mL/min
(§7) Ionization method: electrospray
(§8) Temperature: • Desolvation Line (DL) temperature: 250° C. • Heat block temperature: 400° C. • Interface temperature: 300° C.
(§9) Gas flow rate: • Nebulizer gas flow rate: 3.0 L/min • Drying gas flow rate: 10.0 L/min • Heating gas flow rate: 10.0 L/min
(§10) Mode: multiple reaction monitoring (MRM)
The rate of increase or decrease in Table K is the value of detection intensity relative to 1 that is the detection intensity in a case where the time from centrifugation to isolation is set to 30 minutes.

[5] = LC/MS of blood plasma sample: number of times of freezing and thawing (Table F); details: for Rate of increase or decrease: detection intensity relative to 1 at 2 times; for Increase or decrease: detection intensity
Method in brief: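 Values are detection intensities normalised to 1 for plasma thawed twice, compared against 4, 6 and 10 freeze-thaw cycles. Measured by electrospray LC/MS in MRM mode, formic acid water/acetonitrile mobile phase, column at 40° C. Plasma came from EDTA blood, cooled to 4° C and spun at 3000 rpm for 15 min.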

[6] = LC/MS of blood plasma sample: time from blood collection to cooling of blood (Table E); design: key to Rate of increase or decrease / Rate of increase or decrease (first value, increase): detection intensity relative to ≤1 min to cooling = 1
Experimental: At room temperature, 5 mL of blood from a healthy subject was taken into a blood-collecting vessel containing EDTA, and the blood-collecting vessel was inverted for mixing, then cooled, and allowed to stand at 4° C. Here, in order to investigate how the detection intensity of molecules contained in the sample was affected in a case where the time to cooling was set to 5 minutes or more as compared to that in a case where the time to cooling was set to 1 minute or less, preparations were performed under both the former condition and the latter condition. After standing, the blood sample was subjected to centrifugation under a condition of 4° C., 3000 rpm, and 15 minutes. […] After centrifugation, the blood-collecting vessel was left to stand at room temperature for 30 minutes, and the blood plasma was isolated during this 30 minutes. The obtained blood plasma sample was frozen and stored. Here, in order to investigate how the detection intensity of molecules contained in the sample was affected in cases where freezing and thawing was performed 4 times, 6 times, and 10 times after freezing as compared to that in a case where freezing and thawing was performed 2 times after freezing, freezing and thawing was performed under the respective conditions of 2, 4, 6, and 10 times.
as §1, §2, §3, §4, §5, §6, §7, §8, §9, §10
The rate of increase or decrease in Table E is the value of detection intensity relative to 1 that is the detection intensity in a case where the time from blood collection to cooling is set to 1 minute or less.

[7] = GC/MS of blood plasma sample: time from blood collection to centrifugation (Table A); details: blood collection to centrifugation
Method in brief: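 Read-out is MRM detection intensity by electron-ionization GC/MS on a BPX5 column after methoxymation and trimethylsilylation, expressed relative to a 15-minute collection-to-centrifugation interval. Plasma was prepared from EDTA blood held at 4° C and spun at 4° C, 3000 rpm for 15 minutes, then frozen.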

[8] = 4 times of freezing and thawing, detection intensity relative to 1 at 2 times
[9] = after 6 hours from blood collection to centrifugation
[10] = freezing and thawing 4 times vs 2 times
[11] = 6 times of freezing and thawing, detection intensity relative to 1 at 2 times
[12] = after 4 hours from blood collection to centrifugation
[13] = after 1 hour from centrifugation to isolation

Structure (SMILES): C[S+]([O-])CC[C@H](N)C(=O)O (some centres unmarked) [Methionine sulfoxide]
- Increase or decrease ([1]; after 12 hours vs 15 minutes): Different from individual
- Rate of increase or decrease (second value, decrease) ([1]; after 12 hours): 0.54
- Rate of increase or decrease (first value, increase) ([1]; after 12 hours): 1.36
- Rate of increase or decrease [2, 8]: 1.55
- Number of times when compound is affected [2]: 4 times
- Increase or decrease [2]: Increase
- Rate of increase or decrease [3, 9]: 1.65
- Increase or decrease [3]: Increase
- Time when compound is affected [3]: After 6 hours
- Rate of increase or decrease ([4]; after 6 hours from centrifugation to isolation): 1.77
- Increase or decrease [4]: Increase
- Time when compound is affected [4]: After 6 hours

Structure (SMILES): N=C(N)NCCC[C@H](NC(CC(=O)O)C(=O)O)C(=O)O (some centres unmarked) [Argininosuccinic acid]
- Rate of increase or decrease ([1]; after 12 hours): 0.61
- Increase or decrease ([1]; after 12 hours vs 15 minutes): Decrease
- Rate of increase or decrease ([2]; 6 times of freezing and thawing, relative to 1 at 2 times, different from individual to individual, first value (increase)): 1.38
- Rate of increase or decrease ([2]; 6 times of freezing and thawing, relative to 1 at 2 times, different from individual to individual, second value (decrease)): 0.49
- Number of times when compound is affected [2]: 6 times
- Increase or decrease [2]: Different from individual
- Rate of increase or decrease [3, 9]: 0.65
- Increase or decrease [3]: Decrease
- Time when compound is affected [3]: After 6 hours
- Increase or decrease [4]: Increase
- Time when compound is affected [4]: After 1 hour hours
- Rate of increase or decrease ([5]; freezing and thawing 4 times): 2.01
- Increase or decrease [5, 10]: Increase

Structure (SMILES): Nc1nc2c(ncn2[C@@H]2O[C@H](CO)[C@@H](O)[C@H]2O)c(=O)[nH]1 [Guanosine]
- Rate of increase or decrease ([1]; after 6 hours): 1.57
- Increase or decrease ([1]; after 6 hours vs 15 minutes): Increase
- Rate of increase or decrease [2, 11]: 0.62
- Number of times when compound is affected [2]: 6 times
- Increase or decrease [2]: Decrease
- Rate of increase or decrease [3, 12]: 0.08
- Increase or decrease [3]: Decrease
- Time when compound is affected [3]: After 4 hours
- Rate of increase or decrease [4, 13]: 0.57
- Increase or decrease [4]: Decrease
- Time when compound is affected [4]: After 1 hour hours
- Rate of increase or decrease ([5]; freezing and thawing 6 times): 0.58
- Increase or decrease ([5]; freezing and thawing 6 times vs 2 times): Decrease

Structure (SMILES): CN(C)C(N)=NCCC[C@H](N)C(=O)O [Asymmetric dimethylarginine]
- Rate of increase or decrease ([6]; detection intensity relative to 1 at 1 minute or less, blood collection to cooling 5 minutes): 1.31
- Increase or decrease ([6]; detection intensity, blood collection to cooling 5 minutes or more vs 1 minute or less): Increase
- Increase or decrease ([1]; after 12 hours vs 15 minutes): Different from individual
- Rate of increase or decrease (second value, decrease) ([1]; after 12 hours): 0.66
- Rate of increase or decrease (first value, increase) ([1]; after 12 hours): 1.78
- Rate of increase or decrease [2, 11]: 0.69
- Number of times when compound is affected [2]: 6 times
- Increase or decrease [2]: Decrease

Structure (SMILES): N[C@@H](CSSC[C@H](N)C(=O)O)C(=O)O [Cystine]
- Rate of increase or decrease ([1]; after 12 hours): 0.45
- Increase or decrease ([1]; after 12 hours vs 15 minutes): Decrease
- Rate of increase or decrease [2, 8]: 1.56
- Number of times when compound is affected [2]: 4 times
- Increase or decrease [2]: Increase
- Rate of increase or decrease [4, 13]: 0.67
- Increase or decrease [4]: Decrease
- Time when compound is affected [4]: After 1 hour hours
- Rate of increase or decrease ([5]; freezing and thawing 10 times): 0.54
- Increase or decrease ([5]; freezing and thawing 10 times vs 2 times): Decrease

Structure (SMILES): O=C(O)CC(O)C(=O)O (centres unmarked) [Malic acid]
- Rate of increase or decrease ([1]; after 6 hours): 0.58
- Increase or decrease ([1]; after 6 hours vs 15 minutes): Decrease
- Rate of increase or decrease ([2]; 10 times of freezing and thawing, detection intensity relative to 1 at 2 times): 0.64
- Number of times when compound is affected [2]: 10 times
- Increase or decrease [2]: Decrease
- Rate of increase or decrease [3, 12]: 1.33
- Increase or decrease [3]: Increase
- Time when compound is affected [3]: After 4 hours
- Rate of increase or decrease [4, 13]: 1.38
- Increase or decrease [4]: Increase
- Time when compound is affected [4]: After 1 hour hours
- Rate of increase or decrease ([5]; freezing and thawing 4 times): 2.37
- Increase or decrease [5, 10]: Increase
- Rate of increase or decrease ([7]; detection intensity relative to 1 at 15 minutes, after 12 hours): 1.36
- Increase or decrease ([7]; detection intensity, after 12 hours vs 15 minutes): Increase
